From patent publication US20080318938A1, “METHODS FOR TREATING ABERRANT CELL PROLIFERATION DISORDERS” (priority 2007, published 2008)
Read-outs that look alike come from different tables or passages of the source.

Columns and labels:
M2 Muscarinic receptor = M2 Muscarinic receptor (Homo sapiens, UniProt P08172); assay: Receptor binding
[1] = Tissue distribution in rats (in vivo pharmacokinetic study); design: species or system Sprague Dawley rats
Protocol: Five groups (three animals per group) of male Sprague Dawley rats were assigned for in vivo pharmacokinetic study. • Group-1 animals were dosed intravenously with compound TA1-1B at 7.5 mg/kg and after 2 hr post-dose animals were terminated and whole blood, plasma, brain, bone marrow and adrenal gland collected. • Group-2 animals were dosed intravenously with compound TA1-1B at 7.5 mg/kg for five consecutive days. After 2 hr of the last dose (98 hr) animals were terminated and whole blood, plasma, brain, bone marrow and adrenal gland collected. • Group-3 animals were dosed intravenously with compound TA1-1B at 7.5 mg/kg for five consecutive days. After 26 hr of the last dose (122 hr) animals were terminated and whole blood, plasma, brain, bone marrow and adrenal gland collected. • Group-4 animals were dosed intravenously with compound TA1-1B at 7.5 mg/kg for five consecutive days. After 50 hr of the last dose (146 hr) animals were terminated and whole blood, plasma, brain, bone marrow and adrenal gland collected. • Group-5 animals were dosed intravenously with vehicle, terminated and whole blood, plasma, brain, bone marrow and adrenal gland collected. Tissues obtained from this group of animals were used for corresponding matrix preparation in subsequent bioanalysis.
After administration the compound TA1-1B quickly reaches those tissues (after 2 hr) and subsequently gets cleared.

[2] = TA1-1B in plasma, brain and tumor of HCT116 tumor-bearing mice; assay type: in vivo; details: 25.0 mg/kg single IV dose; for concentration at 15 min / concentration at 2 h: female, NCr nu/nu, mouse; for concentration at 15 min: 15 min post-dose; for concentration at 2 h: two hour post-dose
Description: In vivo experiment protocols were approved by the Animal Use and Care Committee. Female NCr nu/nu mice were purchased from Taconic Farms and group housed in a ventilated rack system on a 12/12 light cycle. All housing materials and water were autoclaved prior to use. The mice were fed ad libitum with gamma-irradiated laboratory chow and acidified water. Animals were handled under laminar-flow hoods. Animals were inoculated subcutaneously in the right flank with 5×10̂6 HCT116 cells. Tumors were monitored twice weekly and then daily as they approached the appropriate size for study. On Day 1 of the study, the animals were randomized into n=3 treatment groups with group average tumor sizes of 109 mm^3.
where w=width and 1=length in mm of the tumor. Tumor weight was estimated with the assumption that 1 mg is equivalent to 1 mm^3 of tumor volume. Mice were dosed with compound TA1-1B at 25.0 mg/kg (single IV dose). At fifteen min and two hour time points, plasma, brain and tumor samples were collected from terminal mice and frozen. It was determined that the tumor contained 0.86 μM, plasma contained 0.74 μM and brain contained 1.47 μM of the therapeutic agent after 15 min post-dose, and the tumor contained 1.6 μM, plasma contained 0.41 μM and brain contained 0.8 μM of the therapeutic agent after the two hour post-dose.

COLO 205 = assay: Inhibition of cell proliferation (MTT); assay type: cell-based; details: Homo sapiens; COLO 205, Colon; 48 hours
Summary of the method: (§1)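 Cells plated, then dosed with compound (final 0.1–10 μM), PBS vehicle, or a Velcade/etoposide/Taxol cocktail. After 48 h culture at 37 °C under 5% CO2, medium is removed and MTT at 0.863 mg/ml added; EC50 reflects half-maximal inhibition of growth.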

MEG-01 = assay: Inhibition of cell proliferation (MTT); assay type: cell-based; details: Homo sapiens; MEG-01, Leukemia; 48 hours
Summary of the method: as §1

[3] = target: CCKA/CCK1 Cholecystokinin receptor (Homo sapiens, UniProt P32238); assay: Receptor binding
Protocol: (§2) The binding IC50, functional effect, and functional EC50 of TA1-1B on exemplary receptors was determined.

SST5 = SST5 (Homo sapiens, UniProt P35346); assay: Receptor binding
Protocol: as §2

SST1 = SST1 (Homo sapiens, UniProt P30872); assay: Receptor binding
Protocol: as §2

SST4 = SST4 (Homo sapiens, UniProt P31391); assay: Receptor binding
Protocol: as §2

[4] = test system: BZD (peripheral) peripheral Benzodiazepine receptor; assay: Receptor binding
[5] = 7.5 mg/kg intravenously (FIG. 3)
[6] = 7.5 mg/kg intravenously, time point not stated, unit from FIG. 2 legend
[7] = brain, read-out: Concentration in brain
[8] = plasma, read-out: Concentration in plasma
[9] = tumor, read-out: Concentration in tumor

Chain of CCKA/CCK1 Cholecystokinin receptor (P32238 whole entry): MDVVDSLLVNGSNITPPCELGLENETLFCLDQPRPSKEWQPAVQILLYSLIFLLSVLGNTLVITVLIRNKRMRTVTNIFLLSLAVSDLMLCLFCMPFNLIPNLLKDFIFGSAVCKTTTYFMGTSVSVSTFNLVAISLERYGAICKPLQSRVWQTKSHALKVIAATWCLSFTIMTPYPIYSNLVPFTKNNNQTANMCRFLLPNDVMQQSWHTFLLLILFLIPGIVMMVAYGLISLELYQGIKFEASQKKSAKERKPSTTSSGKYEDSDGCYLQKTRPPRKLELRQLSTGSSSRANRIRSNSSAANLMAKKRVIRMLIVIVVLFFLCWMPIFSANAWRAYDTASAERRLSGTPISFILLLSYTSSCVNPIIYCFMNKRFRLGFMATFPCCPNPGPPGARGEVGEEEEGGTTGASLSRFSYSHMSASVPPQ
Chain of M2 Muscarinic receptor (P08172 whole entry): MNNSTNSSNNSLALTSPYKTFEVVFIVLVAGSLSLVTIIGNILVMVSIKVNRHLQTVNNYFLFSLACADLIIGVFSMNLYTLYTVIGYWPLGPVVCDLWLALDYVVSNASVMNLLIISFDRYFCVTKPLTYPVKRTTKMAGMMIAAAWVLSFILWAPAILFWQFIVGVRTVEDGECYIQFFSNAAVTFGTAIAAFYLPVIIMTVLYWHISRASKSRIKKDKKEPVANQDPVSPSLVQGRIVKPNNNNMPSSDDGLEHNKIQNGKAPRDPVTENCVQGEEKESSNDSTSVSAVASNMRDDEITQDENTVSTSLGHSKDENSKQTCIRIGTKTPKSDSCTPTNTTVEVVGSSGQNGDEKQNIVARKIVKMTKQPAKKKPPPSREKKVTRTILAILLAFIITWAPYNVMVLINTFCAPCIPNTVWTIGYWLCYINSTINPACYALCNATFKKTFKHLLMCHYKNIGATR
Chain of SST4 (P31391 whole entry, species assumed): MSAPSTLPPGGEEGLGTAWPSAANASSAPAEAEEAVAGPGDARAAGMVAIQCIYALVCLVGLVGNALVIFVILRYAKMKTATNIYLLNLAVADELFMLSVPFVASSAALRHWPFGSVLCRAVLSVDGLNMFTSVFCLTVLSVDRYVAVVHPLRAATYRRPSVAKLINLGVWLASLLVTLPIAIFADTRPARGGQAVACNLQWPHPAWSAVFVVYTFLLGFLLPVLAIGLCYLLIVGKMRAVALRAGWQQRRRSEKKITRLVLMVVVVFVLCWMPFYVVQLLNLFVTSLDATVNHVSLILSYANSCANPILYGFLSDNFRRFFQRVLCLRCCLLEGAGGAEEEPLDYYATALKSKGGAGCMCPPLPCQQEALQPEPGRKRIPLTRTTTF
Chain of SST1 (P30872 whole entry, species assumed): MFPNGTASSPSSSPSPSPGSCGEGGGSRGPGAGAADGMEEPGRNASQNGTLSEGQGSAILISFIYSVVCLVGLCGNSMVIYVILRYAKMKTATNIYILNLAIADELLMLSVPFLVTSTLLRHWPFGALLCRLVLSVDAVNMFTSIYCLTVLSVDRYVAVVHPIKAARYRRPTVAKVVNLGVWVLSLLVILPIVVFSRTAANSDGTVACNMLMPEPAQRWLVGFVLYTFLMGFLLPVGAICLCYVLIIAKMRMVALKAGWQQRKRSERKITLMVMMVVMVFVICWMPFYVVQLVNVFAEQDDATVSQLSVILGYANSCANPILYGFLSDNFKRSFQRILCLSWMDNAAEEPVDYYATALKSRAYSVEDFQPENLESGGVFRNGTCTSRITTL
Chain of SST5 (P35346 whole entry, species assumed): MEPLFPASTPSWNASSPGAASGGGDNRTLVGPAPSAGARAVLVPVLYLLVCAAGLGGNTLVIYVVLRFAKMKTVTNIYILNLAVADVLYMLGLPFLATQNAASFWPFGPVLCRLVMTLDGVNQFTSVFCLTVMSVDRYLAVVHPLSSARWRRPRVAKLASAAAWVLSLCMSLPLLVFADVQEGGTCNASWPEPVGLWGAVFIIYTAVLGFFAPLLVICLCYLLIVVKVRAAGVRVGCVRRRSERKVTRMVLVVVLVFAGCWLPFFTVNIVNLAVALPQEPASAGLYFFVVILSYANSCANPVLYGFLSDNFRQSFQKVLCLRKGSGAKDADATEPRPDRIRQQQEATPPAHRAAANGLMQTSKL

CN1CCC[C@H]1CCNC(=O)c1cn2c3c(c(N4CCC(c5cnccn5)C4)c(F)cc3c1=O)Oc1cc3ccccc3cc1-2 (stereo partly shown) [TA1-1B]
inhibition at 1 µM (M2 Muscarinic receptor): 92%
Exposure in adrenal glands and bone marrow relative to other tissues [1, 5]: highest exposures
Retention in adrenal glands and bone marrow versus brain [1, 5]: retains longer
Elimination from rat brain tissue ([1]; 7.5 mg/kg intravenously QDx5, over 48 hr post-dose (FIG. 2)): almost completely eliminates
Concentration in brain tissue [1, 6]: 1600 nM
Concentration in plasma [1, 6]: 200 nM
Concentration in whole blood [1, 6]: 500 nM
Blood-brain barrier permeation ([2]; heading of Example 3): Permeates the Blood-Brain Barrier
concentration at 15 min [2, 7]: 1470 nM
concentration at 2 h [2, 7]: 800 nM
concentration at 15 min [2, 8]: 740 nM
concentration at 2 h [2, 8]: 410 nM
concentration at 15 min [2, 9]: 860 nM
concentration at 2 h [2, 9]: 1600 nM
EC50 (COLO 205): 707 nM
EC50 (MEG-01): 6000 nM
IC50 ([3]; CCK1/CCKA): 640 nM
inhibition at 1 µM ([3]; CCKA/CCK1, 1 uM): 64%
IC50 (SST5): > 10000 nM
IC50 (SST1): 2800 nM
IC50 (SST4): > 10000 nM
% inhibition @ 1 uM [4]: 65%
